Where a name gives a salt, the structure may show the parent alone.
What was measured:
[1] = test system: Protease XXIII from Aspergillus oryzae (Enzyme A); assay: Homogeneous aqueous enzymatic resolution (ester hydrolysis) with Enzyme A; type: biochemical
Description: No further purification was performed.

[2] = molecular target: T1, Protease VIII "Subtilopeptidase A" (subtilisin Carlsberg) (Enzyme B) (Bacillus licheniformis, UniProt P00780); assay: Homogeneous aqueous enzymatic resolution with Enzyme B; type: biochemical
T1 sequence (P00780 106-379): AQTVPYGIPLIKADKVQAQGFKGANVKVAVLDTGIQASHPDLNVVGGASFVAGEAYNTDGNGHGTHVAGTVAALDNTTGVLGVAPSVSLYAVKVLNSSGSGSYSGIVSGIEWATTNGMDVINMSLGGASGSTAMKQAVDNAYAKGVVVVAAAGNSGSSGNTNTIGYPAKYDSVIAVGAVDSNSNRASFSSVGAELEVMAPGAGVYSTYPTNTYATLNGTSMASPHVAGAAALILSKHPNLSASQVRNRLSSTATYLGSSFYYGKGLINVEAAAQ

[3] = cited from earlier work
[4] = test system: lipase from Candida cylindracea (Meito Sangyo, Lipase OF); assay: Activity of Lipase OF against the ester; type: biochemical
[5] = test system: protease Prozyme 6 (Enzyme F); assay: Asymmetric hydrolysis in an extractive membrane reactor with Enzyme F; type: biochemical, Aspergillus oryzae
Source text: Hexane was recirculated through the lumen or bores of the fibers in the module. The aqueous solution in the shell contained the enzyme and ester. While the cellulose membrane is water-wet, the membrane rejects the macromolecular enzyme (molecular weight 18,000). Therefore, the enzyme resides solely in the aqueous ester solution. As the ibuprofen acid was formed, it was extracted into the hexane phase, thereby reducing the effect of product (ibuprofen acid) inhibition on the activity of the enzyme.
The aqueous phase used to extract the ibuprofen acid from hexane in this module contained 0.1 M sodium carbonate buffer at pH 9.5. The pH was maintained at this value by the addition of 8.22M sodium hydroxide as required.
In this Example, the aqueous stream in the extractive membrane reactor module consisted of a solution of the sulfomethyl ester of ibuprofen (1), which solution was prepared by adding 32.51 gm of the sodium salt of the ester (at 75% chemical purity) to 1000 ml of 0.1M sodium phosphate buffer (pH 7.0). The reaction was started by adding 2 gm of the protease (F) from the fungus Aspergillus oryzae (from Amano Enzyme Corporation, Prozyme 6, 60,000 units per […] of solid). Reaction progress was followed by automatic titrimetry using a pH-stat.
The pH 9.5 solution was then acidified to pH 2 and extracted with 2 volumes of t-butyl methyl ether. The ether phase was first washed with two volumes of distilled water, then dried over MgSO4. and subsequently evaporated to dryness. The resolved ibuprofen product was recovered as about 6 gm of a white powder.
The optical rotation of the recovered product was measured by polarimetry; the experimentally determined value for [α]D was -56.7° (measured at c=0.815 in ethanol), thereby indicating the R isomer of ibuprofen. The sample was also analyzed by chiral HPLC using a Bakerbond DNBPG (covalent) column (4.6×250 mm), with 96.9% hexane:3.0% 2-propanol:0.1% acetonitrile as the mobile phase at 2 ml/min after derivatization with napthalene amine. The detector was a UV spectrophotometer set at 223 nm. The retention times for the S and R ibuprofen acids were 18.5 and 20.0 min, respectively. The optical purity or enantiomeric excess of this R ibuprofen sample as determined by this chiral HPLC procedure was 99.3% (i.e., enantiomeric excess of R ibuprofen).
The aqueous phase at pH 7.0 (as recovered from the extractive membrane reactor) was mixed with 280 gm of sodium chloride to salt out the remaining unconverted ester. The ester was filtered, washed with saturated sodium chloride, and air dried. 12.8 gm of ester were recovered in this manner. […] The optical rotation (as measured by polarimetry) was [α]D =+57.4° (c=1.29 in ethanol), indicating the S isomer of ibuprofen. […]

[6] = test system: protease Prozyme 6 (Enzyme F); assay: Asymmetric hydrolysis in an extractive dispersion reactor with Enzyme F; type: biochemical, Aspergillus oryzae; details: 100 mg Prozyme 6, 3.38 gm ester in 100 ml buffer pH 7.0 and 100 ml hexane, 3.5 hours, room temperature
Description: In this Example, the hexane was dispersed in the reaction vessel to extract the inhibitory ibuprofen acid as it is formed. The reaction was started by adding 100 mg of the protease from the fungus Aspergillus oryzae (from Amano Enzyme Corporation, Prozyme 6, 60,000 units per mg of solid).
After 3.5 hours at room temperature with vigorous stirring, the solution was acidified to pH 2 and extracted with 2 volumes of hexane. The aqueous phase was saved for subsequent workup. The hexane phase was dried over MgSO4 and evaporated to dryness. The resolved ibuprofen product so recovered consisted of 490 mg of white powder, indicating 24% conversion. The optical rotation was -0.568° (c=1.015 in ethanol), indicating the R isomer of ibuprofen.

[7] = test system: protease Prozyme 6 (Enzyme F); assay: Homogeneous aqueous enzymatic resolution with Enzyme F; type: biochemical, Aspergillus oryzae; details: for Conversion in Homogeneous Aqueous Reaction System: 0.5M ester, pH 7.0, 30 C
Description: The enzymatic reaction mixtures were capped and briefly shaken until all the substrate had dissolved, and the enzyme had completely dissolved or dispersed. […] Evaporation of the ether left a white solid. The result is summarized below in Table 11 Rotations were measured at c=1 in CHCl3.
The enzymatic reaction mixtures were capped and briefly shaken until all the substrate had dissolved, and the enzyme had completely dissolved or dispersed. […] Evaporation of the ether left a white solid. Rotations were measured at c=1 in CHCl3.
The reaction was started by adding 100 mg of the protease (F) from the fungus Aspergillus oryzae (from Amano Enzyme Corporation, Prozyme 6, 60,000 units per mg of solid).
After 20 hours at room temperature, the solution was acidified to pH 2 and extracted with 3 volumes of diethyl ether. The aqueous phase was saved for subsequent workup. The ether phase was washed with two volumes of distilled water and then one volume of saturated sodium chloride, and then it was dried over MgSO4 and subsequently evaporated to dryness. The resolved ibuprofen product recovered was 930 mg of white powder, indicating 45% conversion of racemic ester to acid. The optical rotation was -0.580° (measured at c=1 in ethanol), indicating the R isomer of ibuprofen.
35 mg of protease Enzyme F, as the commercial preparation Prozyme 6, were added to the aqueous solution. The reaction flask was capped, and briefly shaken until all the enzyme had dissolved or dispersed. […] The resulting mixture was diluted with one volume of water and was extracted with diethyl ether (2 times 200 ml). The ether layers were combined and backwashed with water (2 times 200 ml), saturated NaCl solution (200 ml), and then dried over MgSO4.
In this control run, a 0.5M ester solution of (1) was prepared in 325 ml of 0.1M sodium phosphate buffer (pH 7.0). The reaction was started by adding 3 gm of the above enzyme (F). The pH was controlled at 7.0 with 8.22M sodium hydroxide. After 6.49 hours at 30° C., 6.63 ml of hydroxide were added, indicating 37.7% conversion. The reaction was allowed to continue overnight and, after 23.1 hours, a total of 7.2 ml of sodium hydroxide were added, indicating 40.9% conversion.

[8] = molecular target: T2, Protease XXVII "Nagarse" (Enzyme D) (Bacillus amyloliquefaciens, UniProt P00782); assay: Homogeneous aqueous enzymatic resolution with Enzyme D; type: biochemical; details: acid product (R); 150 mg enzyme D, pH 7.8
T2 construct: purchased Protease XXVII
T2 sequence (P00782 108-382): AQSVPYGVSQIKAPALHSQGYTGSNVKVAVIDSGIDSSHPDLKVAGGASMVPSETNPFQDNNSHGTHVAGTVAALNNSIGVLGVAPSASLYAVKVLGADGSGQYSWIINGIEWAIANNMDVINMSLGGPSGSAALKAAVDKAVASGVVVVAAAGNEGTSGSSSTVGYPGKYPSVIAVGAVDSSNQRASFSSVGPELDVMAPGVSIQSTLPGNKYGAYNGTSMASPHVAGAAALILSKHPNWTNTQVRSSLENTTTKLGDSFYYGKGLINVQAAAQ

Pig Liver Esterase (E) = assay: Homogeneous aqueous enzymatic resolution with Enzyme E; type: biochemical; details: 30 mg Pig Liver Esterase
[9] = Solubility of esters, absorbance of saturated solutions at 262 nm; type: physicochemical; details: saturated solution, pH 7 (50 mM phosphate buffer), room temperature
[10] = test system: Protease XVI from Bacillus subtilis (Enzyme C); assay: Homogeneous aqueous enzymatic resolution with Enzyme C; type: biochemical; details: 100 mg enzyme C, 10 mmol ester in 100 ml 0.2M phosphate buffer pH 7.0, 20 hours, 20-22 C

CC(CSC(=O)c1ccccc1)C(=O)OCS(=O)(=O)O (racemic) [Compound 16, Potassium Salt of the Sulfomethyl Ester of (±)-S-3-Benzoylthio-2-methylpropanoic Acid]
% CONVERSION ([1]; 100 mg enzyme A, 10.0 mmol ester in 100 ml 2M Na3PO4 buffer pH 7.0, 25 C, 18 hours): 53% | % e.e. ([1]; acid product (S), 100 mg enzyme A, pH 7.0, 25 C, 18 hours): 3% | % e.e. ([2]; acid product (S), 100 mg enzyme B, pH 7.0, 25 C, 18 hours): 10%

COc1ccc2cc([C@H](C)C(=O)O)ccc2c1 (stereo in doubt) [naproxen, (+)-S-2-(6-methoxy-2-naphthyl)propanoic acid]
times more therapeutically potent than its R(-) counterpart ([3]; S(+) enantiomer vs R(-)): 28 times

CC(C)Cc1ccc(C(C)C(=O)OCS(=O)(=O)O)cc1 (centres unmarked) [Compound 1, Sodium Salt of 4-Sulfomethyl Ester of 2-(4-Isobutylphenyl)propanoic Acid]
activity of the lipase against the ester [4]: inactive | conversion of the racemic ester to the acid ([5]; enzyme in aqueous phase and membrane pores, 3 gm Prozyme 6, 0.5M ester, pH 7.0, 6.75 hours at 30 C): 48.3% | conversion of the racemic ester to ibuprofen acid ([5]; enzyme in aqueous phase only (cellulose dialysis fibers), 2 gm Prozyme 6, 32.51 gm ester in 1000 ml pH 7.0, hexane, 6.3 hours, room temperature): 50% | enantiomeric excess of R ibuprofen by chiral HPLC (acid product) ([5]; enzyme in aqueous phase only, 6.3 hours): 99.3% | enantiomeric excess of S ibuprofen by chiral HPLC (from unconverted ester) ([5]; enzyme in aqueous phase only, 6.3 hours, ester hydrolysed at pH 12): 98.9% | conversion [6]: 24% | % e.e. ([1]; acid product (R), 100 mg enzyme A, pH 7.0, 20 hours, 20-22 C): > 99% | conversion of racemic ester to acid ([7]; 100 mg Prozyme 6, 3.22 gm ester in 100 ml 0.2M sodium phosphate pH 7.0, 20 hours, room temperature): 45% | conversion ([7]; 3 gm enzyme F, 0.5M ester in 325 ml 0.1M sodium phosphate pH 7.0, 30 C, after 6.49 hours): 37.7% | Conversion in Homogeneous Aqueous Reaction System ([7]; 3 gm enzyme F, 23.1 hours): 40.9% | Conversion in Homogeneous Aqueous Reaction System ([7]; 3 gm enzyme F, Time 6.75 hrs): 37.7%

CC(C)Cc1ccc(C(C)C(=O)OCCS(=O)(=O)O)cc1 (centres unmarked) [Compound 2, Sodium Salt of 2-Sulfoethyl Ester of 2-(4-Isobutylphenyl)propanoic Acid]
% e.e. ([1]; acid product (R), 150 mg enzyme A, 125 ml buffer pH 7.0, 18 hours): > 99% | % e.e. ([2]; acid product (R), 150 mg enzyme B, 125 ml buffer pH 7.0, 18 hours): 90.0%

CC(C)Cc1ccc(C(C)C(=O)OCCCS(=O)(=O)O)cc1 (centres unmarked) [Compound 3, Potassium Salt of 3-Sulfopropyl Ester of 2-(4-Isobutylphenyl)propanoic Acid]
% e.e. [8]: 91.0% | % CONVERSION (Pig Liver Esterase (E); 0.010 mol ester in 100 ml 0.2M sodium phosphate buffer at pH 7.8 (heading: pH 7.0)): 12.1% | % e.e. (Pig Liver Esterase (E); acid product (R), pH 7.8 (heading: pH 7.0)): 88.0% | % CONVERSION ([1]; 100 mg enzyme A, 10 mmol ester in 100 ml 0.2M phosphate buffer pH 7.0, 20 hours, 20-22 C): 50.0% | conversion of the racemic ester to acid ([1]; 1.00 gm enzyme A, about 1 M ester, 0.1M potassium phosphate pH 7.0, 23.9 hours, room temperature, by NaOH titration): 29%

CC(C)Cc1ccc(C(C)C(=O)OCCCCS(=O)(=O)O)cc1 (centres unmarked) [Compound 4, Potassium Salt of 4-Sulfobutyl Ester of 2-(4-Isobutylphenyl)propanoic Acid]
Solubility [9]: 1130 mM | % CONVERSION [10]: 22.0%

CC(C)Cc1ccc(C(C)C(=O)OCCOP(=O)(O)O)cc1 (centres unmarked) [Compound 5, Disodium Salt of the Phosphoric Acid Ester of the 2-Hydroxyethyl Ester of 2-(4-Isobutylphenyl)propanoic Acid]
% CONVERSION [10]: 5.3%

CC(C)NCC(O)COc1cccc2ccccc12 [L-form of propranolol, propranolol]
times more potent than the D-enantiomer ([3]; L-form vs D-enantiomer): 100 times
